According to patent US20250163057A1, “DCN-1 MODULATING COMPOUNDS AND METHODS OF USE THEREOF” (Cellarity, Inc., priority 2023, published 2025):
Read-outs that look alike come from different tables or passages of the source.

Legend:
[1] = test system: Cullin-3 (CUL3) neddylation; assay: AlphaLISA assay for Cullin-3 (CUL3) neddylation in TF 1 cells; assay type: cell-based; details: 3 hours treatment; for IC50: Homo sapiens
Protocol: An AiphaLISA assay was performed to evaluate the ability of the compounds to suppress neddylation, which is downstream from DCN-1 and DCN-2. A stronger inhibition of DCN-1 and DCN-2 is expected to result in a suppression of neddylation as shown by a lower AlphaLISA signal. The AlphaLISA assay for detecting Cullin-3 (CUL3) neddylation was performed according to manufacturer instructions (Revvity, Hopkinton, MA). Briefly, TF 1 cells (ATCC) were plated in Iscove's Modified Dulbecco's Medium (IMIDM) without supplements in 384-well plates. These cells were treated with […] for 3 hours before lysing them with AlphaLISA lysis buffer, 5× (Revvity). To detect the level of CUL3 neddylation, biotinylated anti-NEDD8 antibody, was added followed by AlphaLISA Acceptor beads conjugated with anti-CUL3 antibody. After overnight incubation, Streptavidin-coated Alpha Donor beads were added and incubated for 1 hour. The AlphaLISA signal was then read on a VICTOR Nivo Multimode Microplate Reader (Revvity, Hopkinton, MA). The positive control was 1 μM DI-1548, which is reported to reduce CUL3 neddylation, also referred to as C-1 in Example 41 (Zhou et al. Nature Comm. 2021). The neddylation signal was normalized such that the percent inhibition is 0% for vehicle control and 100% for positive control. The dose-response curves were fitted with the Hill equation to obtain IC50 values (Graphpad Prism).

[2] = biological target: DCN1 (DCUND1) protein PONY domain (Homo sapiens (Human), UniProt Q96GG9); assay: TR-FRET assay, DCN1 binding with FAM-labeled probe
DCN1 (DCUND1) protein PONY domain, sequence (Q96GG9 60-248): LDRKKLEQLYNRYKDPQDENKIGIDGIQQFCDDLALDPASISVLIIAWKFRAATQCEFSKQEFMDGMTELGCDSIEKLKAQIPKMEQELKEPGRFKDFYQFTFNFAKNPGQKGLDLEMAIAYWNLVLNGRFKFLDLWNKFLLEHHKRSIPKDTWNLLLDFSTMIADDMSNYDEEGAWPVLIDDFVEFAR
Outline: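 TR-FRET ratio (Tb-DCN1 to FAM-probe) read at 1, 5 and 24 hrs after compound addition. Protein: recombinant PONY domain from E. coli, biotinylated and coupled to streptavidin terbium. Either 5 nM DCN1 with 20 nM FAM-probe, or 0.31 nM DCN1 with 100 nM FAM-labelled plus 800 nM unlabelled probe.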

[3] = 24 hr after treatment with compound, read-out: TR FRET IC50 24 hr
[4] = TR FRET IC50 1 hr (nM), 1 hr after treatment with compound
[5] = read-out: TR FRET IC50 1 hr, 1 hr after treatment with compound

SMILES | IC50 ([1]; TF-1, 3 h) | IC50 [2, 3] | IC50 [2, 4] | Neddylation IC50 (nM) [1] | IC50 [1] | IC50 [2, 5]
CCN1C(=O)[C@@H](NC(=O)c2cccc(C(F)(F)F)c2)[C@@H](C2CC2)c2c(C(=O)N(CC#N)C3CC3)nn(C3CCOCC3)c21 [Compound I-682] | ≤ 0.1 µM | ≤ 200 nM | 200 to 1000 nM |  |  | 
CCN1C(=O)[C@H](NC(=O)c2cccc(C(F)(F)F)c2)[C@H](c2ccc(F)cc2)c2c(C(=O)N3CCC[C@H]3C#N)nn(-c3cccc(OCCN(C)C4COC4)c3)c21 [Compound I-584] | > 1 µM | 1000 to 3000 nM | 1000 to 3000 nM |  |  | 
CCN1C(=O)[C@@H](NC(=O)c2cccc(C(F)(F)F)c2)[C@@H](C2CC2)c2c(C(=O)N3CCC[C@H]3C#N)nn(-c3ccccc3)c21 [Compound I-686] |  | ≤ 200 nM | 1000 to 3000 nM | + + |  | 
CCN1C(=O)[C@@H](NC(=O)c2cccc(C(F)(F)F)c2)[C@@H](c2ccc(F)cc2)c2c([C@@H](CN(C)C)NC(N)=O)nn(-c3ccccc3)c21 (mixture of isomers) [Compound I-673] | > 1 µM | 200 to 1000 nM | 200 to 1000 nM |  |  | 
CCN1C(=O)[C@H](NC(=O)c2cccc(C(F)(F)F)c2)[C@H](c2ccc(F)cc2)c2c(C(=O)N3CC[C@@H]3C#N)nn(-c3ccccc3)c21 [Compound I-457] | > 1 µM | 1000 to 3000 nM | 1000 to 3000 nM |  |  | 
CCN1C(=O)[C@@H](NC(=O)c2cccc3ccoc23)[C@@H](C2CC2)c2c(C(=O)N3[C@H](C#N)C[C@H]4C[C@H]43)nn(C3CCOCC3)c21 [Compound I-707] |  | ≤ 200 nM |  |  | ≤ 0.1 µM | ≤ 200 nM
CCN1C(=O)[C@@H](NC(=O)c2cccc(C(F)(F)F)c2)[C@@H](c2ccc(F)cc2)c2c(C(=O)N3CC[C@@H]3C#N)nn(-c3ccccc3)c21 [Compound I-570] | 0.1 to 1 µM | 200 to 1000 nM | 1000 to 3000 nM |  |  | 
CCN1C(=O)[C@@](C)(NC(=O)c2cccc(C(F)(F)F)c2)[C@@H](C2CC2)c2c(C(=O)N3[C@H](C#N)C[C@H]4C[C@H]43)nn(C3CCOCC3)c21 [Compound I-516, N-((4S,5S)-3-((1R,3S,5R)-3-cyano-2-azabicyclo[3.1.0]hexane-2-carbonyl)-4-cyclopropyl-7-ethyl-5-methyl-6-oxo-1-(tetrahydro-2H-pyran-4-yl)-4,5,6,7-tetrahydro-1H-pyrazolo[3,4-b]pyridin-5-yl)-3-(trifluoromethyl)benzamide] | ≤ 0.1 µM | ≤ 200 nM |  |  |  | ≤ 200 nM
CCN1C(=O)[C@@H](NC(=O)c2cccc(C(F)(F)F)c2)[C@@H](c2ccccn2)c2c([C@@H](C)NC#N)nn(-c3ccccc3)c21 (mixture of isomers) [Compound I-680] | ≤ 0.1 µM | ≤ 200 nM | 200 to 1000 nM |  |  | 
CCN1C(=O)[C@@H](NC(=O)c2nccc(C(F)(F)F)n2)[C@H](c2ccc(F)cc2)c2c(CN(C)C(=O)CC#N)nn(-c3ccccc3)c21 [Compound I-402, N-((4R,5S)-3-((2-cyano-N-methylacetamido)methyl)-7-ethyl-4-(4-fluorophenyl)-6-oxo-1-phenyl-4,5,6,7-tetrahydro-1H-pyrazolo[3,4-b]pyridin-5-yl)-4-(trifluoromethyl)pyrimidine-2-carboxamide] | 0.1 to 1 µM | 1000 to 3000 nM | 1000 to 3000 nM |  |  | 
CCN1C(=O)[C@H](NC(=O)c2cccc(C(F)(F)F)c2)[C@H](c2ccc(F)cc2)c2c(C(=O)N3[C@H](C#N)C[C@@H]4C[C@@H]43)nn(-c3ccccc3)c21 [Compound I-463] | > 1 µM | 1000 to 3000 nM | 1000 to 3000 nM |  |  | 
CCN1C(=O)[C@@H](NC(=O)c2cccc(C(F)(F)F)c2)[C@@H](c2ccc(F)cc2)c2c(C(=O)N(C)[C@H](C#N)CCN(C)C)nn(-c3ccccc3)c21 (single isomer, unassigned) [Compound I-303, (4S,5S)—N-[(1S*)-1-cyano-3-(dimethylamino)propyl]-7-ethyl-4-(4-fluorophenyl)-N-methyl-6-oxo-1-phenyl-5-[3-(trifluoromethyl)benzamido]-4H,5H-pyrazolo[3,4-b]pyridine-3-carboxamide] | ≤ 0.1 µM |  |  |  |  | 
